Tested on: Chemostat Inoculum (bacteria cocktail with A. viscosus, S. oralis, V. parvula, L. casei, and F. nucleatum)
Test: Resazurin anti-bacterial test (bacterial viability microassay)
Assay type: cell-based
Details: 1 hr incubation with test solution 1:1 in 1/4 strength trypticase soy broth, average of runs over 4-5 days, concentration as in toothpaste formula
Procedure: The core shell silica (CSS) particles of the invention were testing for anti-bacterial activity using the resazurin anti-bacterial test assay wherein the reduction of resazurin is a measure of reduction of bacterial growth.
All solutions are measured for the bacterial viability using resazurin microassay with Chemostat Inoculum (bacteria cocktail with A. viscosus, S. oralis, V. parvula, L. casei, and F. nucleatum) used in oral care product evaluation. Resazurin (7-Hydroxy-3H-phenoxazin-3-one 10-oxide) is a blue dye used as oxidation—reduction reaction, quantifies bacterial viability from color perception with respiring reaction effect.
Each experiment is conducted with live and dead bacterial cocktail with A. viscosus, S. oralis, V. parvula, L. casei, and F. nucleatum using TSB broth (trypticase soy broth) and ethanol respectively and they were added at proper ratio to generate standard curve from 100% live bacterial cocktail to 100% dead bacterial cocktail collecting at a total of 12 points.
The assay is performed using bacteria pellet from 1 ml Chemostat Inoculum and exposed with 1/4 strength trypticase soy broth: test solution at 1:1 ratio in Eppendorf tube. After 1 hr incubation further bacteria growth was deactivated adding 1 ml D/E Broth with proper mixing and collected pellet was rinsed with 1 ml TSB broth to remove D/E broth completely (D/E=Dey-Engley). […]

## [Cl-].[Cl-].[Zn+2] [Positive control (1% ZnCl2 + water), zinc chloride]
  % of viable bacteria: 4.88%
